Laboratory results as given in ChEMBL document CHEMBL4680185, “Discovery of novel cyclin-dependent kinase (CDK) and histone deacetylase (HDAC) dual inhibitors with potent in vitro and in vivo anticancer activity” (Eur J Med Chem, 2020).
pIC50: −log10 of the molar value. Calls of active or inactive are those of the source. The calls are words filed in the database; no cut-off is given here.

Tests used:
[1] = system: HeLa; test: Cell cycle arrest in human HeLa cells assessed as increase in number of cells at G2/M phase at 0.5 to 2 uM incubated for 24 hrs by propidium iodide staining based flow cytometry; assay type: functional; conditions: dose 0.5-2 µM
[2] = target: CDK1/Cyclin A (Homo sapiens, UniProt P06493); test: Inhibition of recombinant human full length CDK1/cyclin A2 expressed in Sf9 cells incubated for 10 mins by ADP-Glo reagent assay
[3] = system: HCT-116; test: cells; assay type: functional; conditions: Homo sapiens, time 72 hrs, read-out: GI
[4] = target: CDK2/Cyclin A2 (Homo sapiens, UniProt P24941); test: Inhibition of recombinant human full length CDK2/cyclin A2 incubated for 10 mins by ADP-Glo reagent assay; assay type: protein-complex assay
[5] = system: NCI-H460; test: cells; assay type: functional; conditions: Homo sapiens, time 72 hrs, read-out: GI
[6] = target: Cyclin-dependent kinase 4/cyclin D1 (Homo sapiens, UniProt P11802); test: Inhibition of recombinant human full length CDK4/cyclin D1 expressed in Sf9 cells incubated for 10 mins by ADP-Glo reagent assay
[7] = target: Histone deacetylase 1 (Homo sapiens, UniProt Q13547); test: Inhibition of human recombinant HDAC1 preincubated for 10 mins followed by addition of substrate fluor De Lys SIRT1 deacetylase measured after 30 mins by fluorescent plate reader analysis
[8] = system: A-375; test: Cell cycle arrest in human A375 cells assessed as increase in number of cells at G2/M phase at 2 uM incubated for 24 hrs by propidium iodide staining based flow cytometry (reference value: 1.13%); assay type: functional
[9] = target: T1, Protein deacetylase HDAC6 (Homo sapiens, UniProt Q9UBN7); test: Inhibition of human recombinant HDAC6 preincubated for 10 mins followed by addition of substrate fluor De Lys SIRT1 deacetylase measured after 30 mins by fluorescent plate reader analysis
T1 sequence (Q9UBN7 whole entry): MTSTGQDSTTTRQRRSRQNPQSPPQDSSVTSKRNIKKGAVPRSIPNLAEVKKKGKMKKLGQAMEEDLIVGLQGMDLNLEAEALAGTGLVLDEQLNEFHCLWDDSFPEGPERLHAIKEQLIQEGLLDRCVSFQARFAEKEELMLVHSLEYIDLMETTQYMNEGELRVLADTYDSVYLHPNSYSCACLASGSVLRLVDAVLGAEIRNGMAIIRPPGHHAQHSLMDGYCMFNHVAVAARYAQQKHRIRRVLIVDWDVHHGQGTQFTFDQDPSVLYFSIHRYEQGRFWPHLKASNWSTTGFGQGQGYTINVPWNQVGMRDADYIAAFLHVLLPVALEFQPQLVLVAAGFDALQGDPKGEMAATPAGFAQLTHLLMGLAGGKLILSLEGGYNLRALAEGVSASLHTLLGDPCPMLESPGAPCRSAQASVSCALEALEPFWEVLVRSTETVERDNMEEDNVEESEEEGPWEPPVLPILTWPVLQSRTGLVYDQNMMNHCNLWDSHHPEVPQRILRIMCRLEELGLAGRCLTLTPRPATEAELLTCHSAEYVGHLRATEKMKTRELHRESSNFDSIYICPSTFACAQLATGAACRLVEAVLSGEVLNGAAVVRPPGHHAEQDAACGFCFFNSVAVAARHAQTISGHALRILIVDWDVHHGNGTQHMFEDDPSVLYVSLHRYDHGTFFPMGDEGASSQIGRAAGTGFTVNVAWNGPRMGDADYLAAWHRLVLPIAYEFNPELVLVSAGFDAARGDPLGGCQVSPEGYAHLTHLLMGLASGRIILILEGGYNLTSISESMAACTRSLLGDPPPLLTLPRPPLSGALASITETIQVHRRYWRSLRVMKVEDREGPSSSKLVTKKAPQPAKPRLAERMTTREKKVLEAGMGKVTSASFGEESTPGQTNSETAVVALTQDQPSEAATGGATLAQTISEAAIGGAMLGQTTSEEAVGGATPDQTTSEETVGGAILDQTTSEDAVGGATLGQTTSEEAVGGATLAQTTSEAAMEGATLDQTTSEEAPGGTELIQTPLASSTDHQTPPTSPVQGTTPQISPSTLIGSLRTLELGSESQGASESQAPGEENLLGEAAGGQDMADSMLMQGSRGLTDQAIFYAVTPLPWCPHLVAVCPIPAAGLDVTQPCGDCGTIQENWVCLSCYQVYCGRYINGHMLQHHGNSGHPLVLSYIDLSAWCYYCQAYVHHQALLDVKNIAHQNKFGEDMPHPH

[10] = target: Cyclin-dependent kinase 2 (Homo sapiens) (UniProt P24941); test: Inhibition of CDK2 in human A375 cells at 1 uM measured after 12 hr by DAPI staining based immunofluorescence analysis; assay type: cell-based; conditions: A-375
[11] = target: Histone deacetylase 2 (Homo sapiens, UniProt Q92769); test: Inhibition of human recombinant HDAC2 preincubated for 10 mins followed by addition of substrate fluor De Lys green measured after 30 mins by fluorescent plate reader analysis
[12] = system: A-375; test: Induction of ROS generation in human A375 cells at 1 uM measured after 24 hrs by fluorescence microscopic analysis
[13] = system: NCI-H460; test: Antimigratory activity against human H460 cells assessed as inhibition of cell migration at 0.5 uM measured after 48 hrs by cell scratch assay; assay type: functional, cell-based
[14] = Cmax in ICR mouse at 20 mg/kg, ip by LC-MS/MS analysis; assay type: ADME, organism-based; design: route intraperitoneal, dose 20 mg/kg; conditions: in vivo
[15] = system: HCT-116; test: cells; assay type: functional; conditions: Homo sapiens, time 72 hrs, read-out: GI; remark: listed apart in the source
[16] = system: NCI-H460; test: Cell cycle arrest in human H460 cells assessed as increase in number of cells at G2/M phase at 0.5 to 2 uM incubated for 24 hrs by propidium iodide staining based flow cytometry; assay type: functional; conditions: dose 0.5-2 µM
[17] = system: A-375; test: cells; assay type: functional, cell-based; conditions: Homo sapiens, A-375, 72 h
Description: Antiproliferative activity against human A375 cells assessed as inhibition of cell growth incubated for 72 hrs by CCK-8 assay

[18] = system: HCT-116; test: Induction of apoptosis in human HCT116 cells assessed as number of apoptotic cells at 2 uM incubated for 48 hrs by annexin V-FITC/PI based flow cytometric analysis relative to control; assay type: functional
[19] = AUC (0 to infinity) in ICR mouse at 20 mg/kg, ip by LC-MS/MS analysis; assay type: ADME, organism-based; design: time infinity, route intraperitoneal, dose 20 mg/kg; conditions: in vivo
[20] = Biovailability in ICR mouse at 20 mg/kg, ip; assay type: ADME, organism-based; conditions: in vivo
[21] = Half life in ICR mouse at 20 mg/kg, ip by LC-MS/MS analysis; assay type: ADME, organism-based; conditions: in vivo
[22] = Cytotoxicity against mouse NIH/3T3 cells incubated for 72 hrs by CCK-8 assay; assay type: cell-based; conditions: NIH3T3, 72 h
[23] = system: NCI-H460; test: cells; assay type: functional, cell-based; conditions: Homo sapiens, NCI-H460, 72 h
Description: Antiproliferative activity against human H460 cells assessed as inhibition of cell growth incubated for 72 hrs by CCK-8 assay

[24] = target: Histone deacetylase 3/NCoR1 (Homo sapiens, UniProt O15379); test: Inhibition of human recombinant HDAC3/NCOR1 complex preincubated for 10 mins followed by addition of substrate fluor De Lys SIRT1 deacetylase measured after 30 mins by fluorescent plate reader analysis; assay type: protein-complex assay
[25] = system: A-375; test: Antimigratory activity against human A375 cells assessed as inhibition of cell migration at 0.25 uM measured after 48 hrs by cell scratch assay; assay type: functional, cell-based

| SMILES | Activity [1] | pIC50 [2] | inhibition of growth at 2 µM [3] | pIC50 [4] | inhibition of growth at 2 µM [5] | pIC50 [6] | pIC50 [7] | Activity [8] | pIC50 [9] | inhibition [10] | pIC50 [11] | Activity [12] | inhibition [13] | Cmax [14] | inhibition of growth at 8 µM [15] | Activity [16] | pIC50 [17] | Activity [18] | AUC [19] | bioavailability [20] | also measured |
| --- | --- | --- | --- | --- | --- | --- | --- | --- | --- | --- | --- | --- | --- | --- | --- | --- | --- | --- | --- | --- | --- |
| Nc1ccccc1NC(=O)Cc1ccc(NC(=O)c2n[nH]cc2NC(=O)c2c(Cl)cccc2Cl)cc1 | Active | 7.90 | 72.9% | 9.25 | 57.3% | < 6.00 | 6.62 | 66.48% | < 6.00 | Active | 9.62 | Active | Active | 2170 ng/mL | 78% | Active | 5.80 | 77.1% | 7200 ng·h/mL | 27.8% | t1/2 [21]: 1.63 h; pIC50 [22]: 5.33; pIC50 [23]: 5.58; pIC50 [24]: < 6.00; inhibition [25]: Active |
| Nc1ccccc1NC(=O)c1ccc(CNC(=O)c2n[nH]cc2NC(=O)c2c(Cl)cccc2Cl)cc1 | Active | 8.06 | 73.8% | 9.52 | 32.8% | < 6.00 | 8.19 | 57.74% | < 6.00 | Active | 9.60 | Active | Active | 7570 ng/mL | 73.8% | Active | 5.92 | 60.6% | 30700 ng·h/mL | 63.6% | t1/2 [21]: 2.61 h; pIC50 [22]: 5.35; pIC50 [23]: 5.38; pIC50 [24]: 7.35; inhibition [25]: Active |
